The text below walks through data of patent US4450165A, “Dihydropyridine compounds” (Yoshitomi Pharmaceutical Industries, Ltd., priority 1981, dated 1984).

Assay [1] has as its system spontaneously hypertensive rats. Put plainly: Hypotensive activity (systolic blood pressure, indirect tail cuff method). The class given is in vivo. Conditions: Rattus norvegicus; oral; before and at 1, 3, 5 and 7 hours; five male spontaneously hypertensive rats; from dose response curve; read-out: ED30 (effective dose which showed the maximum hypotension by 30 mmHg). How it is done: Five male spontaneously hypertensive rats were used for each experiment. Systolic blood pressure was determined using an indirect tail cuff method before and at 1, 3, 5 and 7 hours following the oral administration of the test compound.

Assay [2] concerns coronary blood flow (left coronary artery). Put plainly: Effect on coronary blood flow. The settings on record: anesthetized dogs; for ED50 (effective dose in blood flow): injected into afferent cannula, increase in blood flow by nifedipine 10 μg taken as 100%; for Duration (time for which the half maximum response remained): coronary blood flow. In kind it is in vivo, mongrel dogs. How it is done: The perfused flow was measured by means of an electromagnitic flow-meter. The test compound was dissolved in an aqueous solution containing 15% ethanol and 15% polyethylene glycol, and injected into the afferent cannula. […] The duration was measured as the time for which the half maximum response remained.

The test system of assay [3] is vertebral blood flow (right vertebral artery). In words: Effect on vertebral blood flow. In kind it is in vivo, mongrel dogs. The settings on record: anesthetized dogs; for ED100 (effective dose in blood flow): injected into afferent tube, increase in blood flow by papaverine 100 μg taken as 100%; for Duration (time for which the half maximum response remained): vertebral blood flow. How it is done: Under the artificial ventilation, the right vertebral artery was perfused with the arterial blood from the left carotid artery through a short bypass. The perfused flow was measured by means of an electromagnetic flow-meter. The test compound was dissolved in an aqueous solution containing 0.1% dimethyl sulfoxide and 0.01% polyoxyethylene hydrogenated castor oil (cremophor EL®), and injected into the afferent tube. […] The duration was measured as the time for which the half maximum response remained.

In the case of `COC(=O)C1=C(C)NC(C)=C(C(=O)OCCN(C)Cc2ccccc2)C1c1cccc([N+](=O)[O-])c1.Cl` (stereo not drawn) [Nicardipine, 2,6-Dimethyl-4-(m-nitrophenyl)-1,4-dihydropyridine-3,5-dicarboxylic acid-3-methylester-5-[2-(N-benzyl-N-methylamino)ethyl]ester hydrochloride, reference compound], the ED (30 mmHg) in assay [1] came to 5 mg/kg. In addition, in assay [2], the “ED50 (effective dose in blood flow)” value stood at 0.5 µg and the “Duration (time for which the half maximum response remained)” value amounted to 3.0 min. In assay [3], the “ED100 (effective dose in blood flow)” value was found to be 0.4 µg and the “Duration (time for which the half maximum response remained)” value is 1.0 min.

For `COC(=O)C1=C(C)NC(C)=C(C(=O)OC)C1c1ccccc1[N+](=O)[O-]` [Nifedipine], the “ED50 (effective dose in blood flow)” value in assay [2] came out at 0.5 µg.

For `COc1ccc(Cc2nccc3cc(OC)c(OC)cc23)cc1OC` [Papaverine, reference compound], in assay [3], the “ED100 (effective dose in blood flow)” value was 100 µg.

`COC(=O)C1=C(C)NC(C)=C(C(=O)OC(CN(C)Cc2ccccc2)c2ccco2)C1c1cccc([N+](=O)[O-])c1.Cl` (stereo not drawn) [Test Compound A, 2,6-Dimethyl-4-(m-nitrophenyl)-1,4-dihydropyridine-3,5-dicarboxylic acid-3-methylester-5-[2-(N-benzyl-N-methylamino)-1-(2-furyl)ethyl]ester hydrochloride]: the ED (30 mmHg) in assay [1] turned out to be 1.3 mg/kg. In assay [2], the “ED50 (effective dose in blood flow)” value was found to be 1.5 µg and the “Duration (time for which the half maximum response remained)” value was determined as 15.0 min. For the same compound, in assay [3], the “ED100 (effective dose in blood flow)” value was found to be 1.0 µg and the “Duration (time for which the half maximum response remained)” value is 11.0 min.

Consider `COC(=O)C1=C(C)NC(C)=C(C(=O)OC(CN(C)Cc2ccccc2)c2cccs2)C1c1cccc([N+](=O)[O-])c1.Cl` (stereo not drawn) [Test Compound B, 2,6-Dimethyl-4-(m-nitrophenyl)-1,4-dihydropyridine-3,5-dicarboxylic acid-3-methylester-5-[2-(N-benzyl-N-methylamino)-1-(2-thienyl)ethyl]ester hydrochloride], for which the ED (30 mmHg) in assay [1] is 1 mg/kg. Moreover, in assay [3], the “ED100 (effective dose in blood flow)” value was 1.8 µg and the “Duration (time for which the half maximum response remained)” value turned out to be 22.5 min.
